The term IC50 denotes the concentration at which inhibition is half-maximal. The low end stands for higher potency, the high end for lower potency.

Experimental findings from patent US20260285875A1, “INHIBITORS OF PARG” (858 Therapeutics, Inc., priority 2023, published 2026) are described below.

This assay concerns the target T1, cellular PARG (Homo sapiens, UniProt Q86W56).
T1 construct: endogenous in cells; host or cells: HeLa
Put plainly: Nuclear PAR accumulation assay (immunofluorescence high-content imaging, MMS-treated HeLa cells). Particulars: 1 hour compound then MMS 50 μg/mL for an additional hour. Format: cell-based. The essentials: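 HeLa cells pretreated with compound for 1 h at 37° C, then given 50 μg/mL MMS for another hour. After methanol fixation, PAR was immunostained with DAPI nuclear counterstain; per-nucleus intensity and percent PAR-positive cells were imaged at 20× (≥1,000 cells/well). IC50 from four-parameter logistic fit.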

T1 sequence (Q86W56 whole entry): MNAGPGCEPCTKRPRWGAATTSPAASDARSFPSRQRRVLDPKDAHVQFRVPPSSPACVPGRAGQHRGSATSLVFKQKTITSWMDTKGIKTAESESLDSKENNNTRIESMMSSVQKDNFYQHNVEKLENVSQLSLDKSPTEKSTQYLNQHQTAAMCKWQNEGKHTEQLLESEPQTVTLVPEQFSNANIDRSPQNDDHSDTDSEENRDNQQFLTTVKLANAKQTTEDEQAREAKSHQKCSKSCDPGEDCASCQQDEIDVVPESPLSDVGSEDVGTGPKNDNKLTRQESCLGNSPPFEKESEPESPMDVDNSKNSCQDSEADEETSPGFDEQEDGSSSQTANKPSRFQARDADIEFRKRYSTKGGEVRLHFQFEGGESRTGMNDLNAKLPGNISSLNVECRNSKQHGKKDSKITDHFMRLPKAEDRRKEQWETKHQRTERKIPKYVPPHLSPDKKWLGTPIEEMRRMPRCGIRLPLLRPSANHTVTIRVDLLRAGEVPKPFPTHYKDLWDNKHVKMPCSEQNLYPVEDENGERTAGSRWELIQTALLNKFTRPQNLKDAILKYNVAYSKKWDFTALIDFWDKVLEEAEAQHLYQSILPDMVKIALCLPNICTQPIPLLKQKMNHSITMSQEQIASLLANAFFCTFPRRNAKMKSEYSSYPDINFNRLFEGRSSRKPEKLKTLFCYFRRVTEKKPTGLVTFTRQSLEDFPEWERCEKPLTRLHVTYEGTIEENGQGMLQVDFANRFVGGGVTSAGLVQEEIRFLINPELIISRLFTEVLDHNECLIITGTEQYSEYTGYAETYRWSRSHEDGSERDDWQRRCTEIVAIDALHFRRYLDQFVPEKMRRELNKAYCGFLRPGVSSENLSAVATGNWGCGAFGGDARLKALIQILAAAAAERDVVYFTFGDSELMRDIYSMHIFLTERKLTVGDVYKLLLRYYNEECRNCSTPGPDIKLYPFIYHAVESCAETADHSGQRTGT

In turn, `Cn1cc(CN2C(=O)c3cc(S(=O)(=O)NC4(C)CC4)ccc3N3C2=NC[C@H]3C#Cc2ccncc2)cn1` [Example 116, (R)-4-((1-methyl-1H-pyrazol-4-yl)methyl)-N-(1-methylcyclopropyl)-5-oxo-1-(pyridin-4-ylethynyl)-1,2,4,5-tetrahydroimidazo[1,2-a]quinazoline-7-sulfonamide] showed an IC50 of less than 0.1 µM. With `Cn1cc(CN2C(=O)c3cc(S(=O)(=O)NC4(C)CC4)ccc3N3C2=NC[C@H]3C#Cc2cccnc2)cn1` [Example 117, (R)-4-((1-methyl-1H-pyrazol-4-yl)methyl)-N-(1-methylcyclopropyl)-5-oxo-1-(pyridin-3-ylethynyl)-1,2,4,5-tetrahydroimidazo[1,2-a]quinazoline-7-sulfonamide], the IC50 was less than 0.1 µM.

With `Cn1cc(CN2C(=O)c3cc(S(=O)(=O)NC4(C)CC4)ccc3N3C2=NC[C@H]3C2CCC2)cn1` [Example 118, (R)-1-cyclobutyl-4-((1-methyl-1H-pyrazol-4-yl)methyl)-N-(1-methylcyclopropyl)-5-oxo-1,2,4,5-tetrahydroimidazo[1,2-a]quinazoline-7-sulfonamide], the IC50 was less than 0.1 µM. As to `Cc1nc([C@@H]2CN=C3N(Cc4cnn(C)c4)C(=O)c4cc(S(=O)(=O)NC5(C)CC5)ccc4N32)co1` [Example 119, (S)-4-((1-methyl-1H-pyrazol-4-yl)methyl)-N-(1-methylcyclopropyl)-1-(2-methyloxazol-4-yl)-5-oxo-1,2,4,5-tetrahydroimidazo[1,2-a]quinazoline-7-sulfonamide], the IC50 lay within 0.1 to 1 µM.

Compound `CN1C(=O)c2cc(S(=O)(=O)NC3(C)CC3)ccc2N2C1=NC[C@H]2C#Cc1cn(C)nc1F` [Example 120, (R)-1-((3-fluoro-1-methyl-1H-pyrazol-4-yl)ethynyl)-4-methyl-N-(1-methylcyclopropyl)-5-oxo-1,2,4,5-tetrahydroimidazo[1,2-a]quinazoline-7-sulfonamide] came in with an IC50 of less than 0.1 µM. The compound `Cc1ncc([C@@H]2CN=C3N(Cc4cnn(C)c4)C(=O)c4cc(S(=O)(=O)NC5(C)CC5)ccc4N32)s1` [Example 121, (S)-4-((1-methyl-1H-pyrazol-4-yl)methyl)-N-(1-methylcyclopropyl)-1-(2-methylthiazol-5-yl)-5-oxo-1,2,4,5-tetrahydroimidazo[1,2-a]quinazoline-7-sulfonamide] registered an IC50 of less than 0.1 µM. With `CCC[C@@H]1CN=C2N(Cc3cnn(C)c3)C(=O)c3cc(S(=O)(=O)NC4(C)CC4)ccc3N21` [Example 122, (R)-4-((1-methyl-1H-pyrazol-4-yl)methyl)-N-(1-methylcyclopropyl)-5-oxo-1-propyl-1,2,4,5-tetrahydroimidazo[1,2-a]quinazoline-7-sulfonamide], the half-maximal inhibitory concentration (IC50) is less than 0.1 µM. The value for `C[C@@H]1CN=C2N(C)C(=O)c3cc(S(=O)(=O)NC4(C)CC4)cc(N4CCC5(CC4)COC5)c3N21` [Example 123, (R)-1,4-dimethyl-N-(1-methylcyclopropyl)-5-oxo-9-(2-oxa-7-azaspiro[3.5]nonan-7-yl)-1,2,4,5-tetrahydroimidazo[1,2-a]quinazoline-7-sulfonamide] was less than 0.1 µM; that for `Cn1cc(CN2C(=O)c3cc(S(=O)(=O)NC4(C)CC4)ccc3N3C2=NC[C@H]3C#CC2(N)CC2)cn1` [Example 124, (R)-1-((1-aminocyclopropyl)ethynyl)-4-((1-methyl-1H-pyrazol-4-yl)methyl)-N-(1-methylcyclopropyl)-5-oxo-1,2,4,5-tetrahydroimidazo[1,2-a]quinazoline-7-sulfonamide] was less than 0.1 µM; that for `COC1(C(=O)N2CCN(c3cc(S(=O)(=O)NC4(C)CC4)cc4c3N3C(=NC[C@H]3C)N(C)C4=O)CC2)CC1` [Example 125, (R)-9-(4-(1-methoxycyclopropane-1-carbonyl)piperazin-1-yl)-1,4-dimethyl-N-(1-methylcyclopropyl)-5-oxo-1,2,4,5-tetrahydroimidazo[1,2-a]quinazoline-7-sulfonamide] was less than 0.1 µM.
